US20250171462A1 (NICO Therapeutics, Inc., priority 2022, published 2025)
pIC50: −log10 of the molar value. Where two headings read alike, the source gives them in different places.

Target: T1, full-length SARM1 (FL-SARM1) (Homo sapiens, UniProt Q6SZW1)
T1 sequence (Q6SZW1 28-724): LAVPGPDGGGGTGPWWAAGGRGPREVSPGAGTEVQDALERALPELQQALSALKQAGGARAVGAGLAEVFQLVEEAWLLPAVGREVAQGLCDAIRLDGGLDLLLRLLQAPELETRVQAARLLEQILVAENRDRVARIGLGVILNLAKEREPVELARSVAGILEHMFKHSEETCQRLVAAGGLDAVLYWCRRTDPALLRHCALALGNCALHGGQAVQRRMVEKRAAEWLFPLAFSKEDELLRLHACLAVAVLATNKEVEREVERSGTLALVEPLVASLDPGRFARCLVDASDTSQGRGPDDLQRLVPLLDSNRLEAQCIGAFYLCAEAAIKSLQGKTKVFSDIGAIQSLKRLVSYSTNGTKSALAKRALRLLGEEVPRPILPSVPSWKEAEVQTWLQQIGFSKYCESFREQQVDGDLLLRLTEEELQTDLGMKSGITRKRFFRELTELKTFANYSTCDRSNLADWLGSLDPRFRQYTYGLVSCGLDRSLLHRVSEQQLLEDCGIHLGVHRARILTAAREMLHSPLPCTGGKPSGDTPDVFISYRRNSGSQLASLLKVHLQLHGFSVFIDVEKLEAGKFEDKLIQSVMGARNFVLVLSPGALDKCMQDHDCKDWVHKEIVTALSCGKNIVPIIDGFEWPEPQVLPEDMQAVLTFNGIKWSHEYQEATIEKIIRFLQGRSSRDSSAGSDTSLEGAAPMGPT
Assay: FL-SARM1 cellular lysate assay (NAD/NADH-Glo detection of remaining NAD+, NMN-activated)
Conditions: for IC50: Activity (μM) (IC50)

[1] = Activity (IC50 class), 11 point curve
[2] = read-out: Activity (IC50 class), 11 point curve

Compound | pIC50 [1] | IC50 (11 point curve) [µM] | pIC50 [2]
Cc1ccc(NC(=O)[C@H]2CCCN2c2ccccn2)cc1-c1ncc(F)cn1 [Example 279, (2R)-N-[3-(5-fluoropyrimidin-2-yl)-4-methylphenyl]-1-pyridin-2-ylpyrrolidine-2-carboxamide] | 5.00 to 6.00 | 4.2 | 
Cc1ccc(NC(=O)[C@H]2CC[C@@H](C3CC3)N2c2ccccn2)cc1-c1ncc(F)cn1 (racemic) [Example 273, cis-5-cyclopropyl-N-(3-(5-fluoropyrimidin-2-yl)-4-methylphenyl)-1-(pyridin-2-yl)pyrrolidine-2-carboxamide] | 5.00 to 6.00 | 1.9 | 
Cc1ccc(NC(=O)C2CC23CCC3)cc1-c1cccnn1 (racemic) [Example 293, N-(4-methyl-3-pyridazin-3-ylphenyl)spiro[2.3] hexane-2-carboxamide] | 5.00 to 6.00 | 2.4 | 
Cc1ccc(NC(=O)[C@@H]2C[C@@H]3[C@H](C2)C3(F)F)cc1-c1cccnn1 [Example 176, trans-6,6-difluoro-N-(4-methyl-3-(pyridazin-3-yl)phenyl)bicyclo[3.1.0]hexane-3-carboxamide] | < 5.00 | 16 | 
O=C(Nc1ccc(C(F)(F)F)c(-c2ccccn2)c1)N1C2CCCC1C2 [Example 18, N-(3-(pyridin-2-yl)-4-(trifluoromethyl)phenyl)-6-azabicyclo[3.1.1]heptane-6-carboxamide] |  | 0.3 | 6.00 to 10.00
O=C(Nc1ccc(C(F)(F)F)c(-c2ncc(F)cn2)c1)N1C2CC3CC(C2)CC1C3 [Example 310, N-(3-(5-fluoropyrimidin-2-yl)-4-(trifluoromethyl)phenyl)-2-azaadamantane-2-carboxamide] |  | 0.7 | 6.00 to 10.00
O=C(Nc1ccc(C(F)(F)F)c(-c2ncc(F)cn2)c1)N1C2CCCCC1C2 [Example 311, N-(3-(5-fluoropyrimidin-2-yl)-4-(trifluoromethyl)phenyl)-7-azabicyclo[4.1.1]octane-7-carboxamide] |  | 0.1 | 6.00 to 10.00
COC(=O)C12CCCC(C1)N2C(=O)Nc1ccc(C)c(-c2ccccn2)c1 (centres unmarked) [Example 9, Methyl 6-[[4-methyl-3-(2-pyridyl)phenyl]carbamoyl]-6-azabicyclo[3.1.1]heptane-1-carboxylate] |  | 0.1 | 6.00 to 10.00
Cc1ccc(NC(=O)[C@H]2C3CC(F)(F)C[C@H]32)cc1-c1cccnn1 (stereo partly drawn) [Example 288, cis-3,3-difluoro-N-(4-methyl-3-pyridazin-3-ylphenyl)bicyclo[3.1.0] hexane-6-carboxamide] | < 5.00 | 15 | 
Cc1cc(F)cnc1-c1cccc(NC(=O)N2C3CCCC2C3)c1 [Example 81, N-[3-(5-fluoro-3-methylpyridin-2-yl)phenyl]-6-azabicyclo[3.1.1]heptane-6-carboxamide] | 5.00 to 6.00 | 3.4 | 
COC(C)[C@@]12CC(C[C@@H](C)C1)N2C(=O)Nc1ccc(C(F)(F)F)c(-c2nccnn2)c1 (single isomer, unassigned) [Example 211, cis-N-(3-(1,2,4-triazin-3-yl)-4-(trifluoromethyl)phenyl)-1-(1-methoxyethyl)-3-methyl-6-azabicyclo[3.1.1]heptane-6-carboxamide] |  | 0.004 | 6.00 to 10.00
Cc1ccc(NC(=O)N2CCOCCC2C)cc1-c1ncc(F)cn1 (racemic) [Example 225, N-[3-(5-fluoropyrimidin-2-yl)-4-methylphenyl]-5-methyl-1,4-oxazepane-4-carboxamide] | < 5.00 | 32 | 
Cc1ccc(NC(=O)N2C[C@@H]3CCCC[C@@H]32)cc1-c1ncc(F)cn1 (racemic) [Example 226, N-[3-(5-fluoropyrimidin-2-yl)-4-methylphenyl]-7-azabicyclo[4.2.0]octane-7-carboxamide] | 5.00 to 6.00 | 1.5 | 
Cc1ccc(NC(=O)CN2C(=O)CCOc3ccccc32)cc1-c1ccccn1 [Example 134, N-(4-methyl-3-pyridin-2-ylphenyl)-2-(4-oxo-2,3-dihydro-1,5-benzoxazepin-5-yl)acetamide] | 5.00 to 6.00 | 1.9 | 
Cc1ccc(NC(=O)[C@H]2CC[C@@H](C)CN2c2ncccn2)cc1-c1ncccn1 (single isomer, unassigned) [Example 205, cis-5-methyl-N-(4-methyl-3-(pyrimidin-2-yl)phenyl)-1-(pyrimidin-2-yl)piperidine-2-carboxamide] |  | 0.3 | 6.00 to 10.00
C[C@@H]1C[C@@H]2C[C@H](C1)N2C(=O)Nc1ccc(C#N)c(-c2ccccn2)c1 [Example 42, cis-N-(4-cyano-3-(pyridin-2-yl)phenyl)-3-methyl-6-azabicyclo[3.1.1]heptane-6-carboxamide] |  | 0.05 | 6.00 to 10.00
CC[C@H]1C[C@H]1C(=O)Nc1ccc(C)c(-c2ccccn2)c1 (single isomer, unassigned) [Example 110, cis-2-ethyl-N-(4-methyl-3-pyridin-2-ylphenyl)cyclopropane-1-carboxamide] | 5.00 to 6.00 | 6 | 
CC[C@H]1C[C@@H]1C(=O)Nc1ccc(C)c(-c2ccccn2)c1 (racemic) [Example 108, trans-2-ethyl-N-(4-methyl-3-pyridin-2-ylphenyl)cyclopropane-1-carboxamide] | 5.00 to 6.00 | 1.1 | 
Cc1cc(F)c(NC(=O)N2[C@@H]3C[C@@H](C)C[C@@]2(C(C)(C)O)C3)cc1-c1ncc(F)cn1 (racemic) [Example 183, cis-N-(2-fluoro-5-(5-fluoropyrimidin-2-yl)-4-methylphenyl)-1-(2-hydroxypropan-2-yl)-3-methyl-6-azabicyclo[3.1.1]heptane-6-carboxamide] |  | 0.06 | 6.00 to 10.00
O=C(Nc1cccc(-c2ccccn2)c1)[C@@H]1CC1(F)F [Example 131, (1S)-2,2-difluoro-N-(3-pyridin-2-ylphenyl)cyclopropane-1-carboxamide] | < 5.00 | 18 | 
Cc1ccc(NC(=O)C2CCC2C)cc1-c1ccccn1 (centres unmarked) [Example 112, 2-methyl-N-(4-methyl-3-pyridin-2-ylphenyl)cyclobutane-1-carboxamide] | 5.00 to 6.00 | 1.7 | 
Cc1ccc(NC(=O)N2[C@@H]3C[C@@H](C)C[C@H]2C3)cc1-c1cc(OC(F)F)cnn1 [Example 235, cis-N-[3-[5-(difluoromethoxy)pyridazin-3-yl]-4-methylphenyl]-3-methyl-6-azabicyclo[3.1.1]heptane-6-carboxamide] |  | 0.06 | 6.00 to 10.00
Cc1ccc(NC(=O)N2C3C[C@@H](C)C[C@H]2C3)cc1-c1nccnn1 [Example 215, cis-3-methyl-N-(4-methyl-3-(1,2,4-triazin-3-yl)phenyl)-6-azabicyclo[3.1.1]heptane-6-carboxamide] |  | 0.03 | 6.00 to 10.00
Cc1ccc(NC(=O)N2CCCC(C)CC2)cc1-c1ncc(F)cn1 (racemic) [Example 213, N-(3-(5-fluoropyrimidin-2-yl)-4-methylphenyl)-4-methylazepane-1-carboxamide] |  | 0.2 | 6.00 to 10.00
Cc1ccc(NC(=O)N2CCCC2c2nccn2C)cc1-c1ccccn1 (racemic) [Example 93, 2-(1-methylimidazol-2-yl)-N-(4-methyl-3-pyridin-2-ylphenyl)pyrrolidine-1-carboxamide] | < 5.00 | 21 | 
